From patent US20220169629A1, “PESTICIDALLY ACTIVE DIAZINE-AMIDE COMPOUNDS” (SYNGENTA CROP PROTECTION AG, priority 2019, published 2022)

What was measured:
Format in all cases: in vivo
[1] = tested on: Plutella xylostella (diamond back moth); assay: Example B5: Plutella xylostella (diamond back moth), artificial diet, 24-well, eggs; conditions: 192 h, application rate of 200 ppm, 8 days after infestation, read-out: control in at least one of the two categories (mortality or growth inhibition)
Protocol: Example B5: Plutella xylostella (Diamond Back Moth)
24-well microtiter plates with artificial diet were treated with aqueous test solutions prepared from 10′000 ppm DMSO stock solutions by pipetting. After drying, Plutella eggs were pipetted through a plastic stencil onto a gel blotting paper and the plate was closed with it. The samples were assessed for mortality and growth inhibition in comparison to untreated samples 8 days after infestation.

[2] = tested on: Chilo suppressalis (striped rice stemborer); assay: Example B4: Chilo suppressalis (striped rice stemborer), artificial diet, L2 larvae; conditions: 144 h, application rate of 200 ppm, 6 days after infestation, L2 larvae on artificial diet, read-out: control in at least one of the three categories (mortality, anti-feeding or growth inhibition)
[3] = tested on: Plutella xylostella (diamondback moth); assay: Example B10: Plutella xylostella (diamondback moth), 96-well artificial diet; conditions: 216 h, application rate of 500 ppm, 9 days after infestation, eggs/L1 larvae
Protocol: Example B10: Plutella xylostella (Diamondback Moth)
96-well microtiter plates containing artificial diet were treated with aqueous test solutions, prepared from 10′000 ppm DMSO stock solutions, by a liquid handling robot. After drying, eggs (˜30 per well) were infested onto a netted lid which was suspended above the diet. The eggs hatch and L1 larvae move down to the diet. The samples were assessed for mortality 9 days after infestation.

[4] = tested on: Tetranychus urticae (two-spotted spider mite); assay: Example B11: Tetranychus urticae (two-spotted spider mite), feeding/contact activity; conditions: foliar, 192 h
Protocol: Example B11: Tetranychus urticae (Two-Spotted Spider Mite): Feeding/Contact Activity
Bean leaf discs on agar in 24-well microtiter plates were sprayed with aqueous test solutions prepared from 10′000 ppm DMSO stock solutions. After drying the leaf discs were infested with a mite population of mixed ages. The samples were assessed for mortality on mixed population (mobile stages) 8 days after infestation.

CC(NC(=O)c1cc(OCC(F)F)cc(C(F)(F)F)c1)c1nccnc1-c1ccc(OCC(F)F)cn1 (stereo not shown) [Compound P16, 3-(2,2-difluoroethoxy)-N-[1-[3-[5-(2,2-difluoroethoxy)-2-pyridyl]pyrazin-2-yl]ethyl]-5-(trifluoromethyl)benzamide]
≥ 80%: percent control (mortality or growth inhibition) at 200 ppm [1] | control at 200 ppm [2] | mortality at 500 ppm [3] | mortality at 200 ppm [4]
